# Assay results reported in ChEMBL document CHEMBL1159093, “Discovery and optimization of RO-85, a novel drug-like, potent, and selective P2X3 receptor antagonist” (Bioorg Med Chem Lett, 2010).
# Columns and labels:
# [1] = species on record: Rattus norvegicus; experiment: Displacement of [125I][Tyr4]bombesin from Bombesin receptor in rat cerebral cortex at 10 uM after 60 mins by scintillation counting; assay type: tissue-based
# [2] = biological target: C-X-C chemokine receptor type 2 (Homo sapiens) (UniProt P25025); experiment: Displacement of [125I]IL-8 from human recombinant CXCR2 receptor expressed in HEK293 cells at 10 uM after 60 mins by scintillation counting; assay type: cell-based
# [3] = biological target: 5-hydroxytryptamine receptor 3A (Homo sapiens) (UniProt P46098); experiment: Displacement of [3H]BRL43694 from human recombinant 5HT3 receptor expressed in CHO cells at 10 uM after 120 mins by scintillation counting; assay type: cell-based
# [4] = biological target: Muscarinic acetylcholine receptor M4 (Homo sapiens) (UniProt P08173); experiment: Displacement of [3H]4-DAMP from human recombinant muscarinic M4 receptor expressed in CHO cells at 10 uM after 60 mins by scintillation counting; assay type: cell-based
# [5] = biological target: L-type calcium channel (verapamil binding site) (Rattus norvegicus, UniProt P22002+P27732+Q02485); experiment: Displacement of [3H]verapamil from verapamil binding site of L-type calcium channel in rat cerebral cortex at 10 uM after 120 mins by scintillation counting; assay type: tissue-based; settings: probe [3H]verapamil, read-out: Activity
# [6] = biological target: Glucocorticoid receptor (Homo sapiens) (UniProt P04150); experiment: Displacement of [3H]dexamethasone from glucocorticoid receptor in human IM9 cells at 10 uM after 6 hrs by scintillation counting; assay type: cell-based; settings: IM-9
# [7] = biological target: Peroxisome proliferator-activated receptor gamma (Homo sapiens) (UniProt P37231); experiment: Displacement of [3H]rosiglitazone from human recombinant PPARgamma receptor expressed in Escherichia coli at 10 uM after 120 mins by scintillation counting
# [8] = biological target: P2X purinoceptor 5 (Homo sapiens, UniProt Q93086); experiment: Antagonist activity at P2X5 receptor; assay type: functional
# [9] = biological target: D(1A) dopamine receptor (Homo sapiens) (UniProt P21728); experiment: Displacement of [3H]SCH 23390 from human recombinant dopamine D1 receptor expressed in CHO cells at 10 uM after 60 mins by scintillation counting; assay type: cell-based
# [10] = biological target: Adrenergic receptor alpha-2 (Rattus norvegicus) (UniProt P22086+P19328+P22909); experiment: Displacement of [3H]RX 821002 from alpha2 receptor in rat cerebral cortex at 10 uM after 60 mins by scintillation counting; assay type: tissue-based
# [11] = biological target: Adenosine receptor A3 (Homo sapiens) (UniProt P0DMS8); experiment: Displacement of [125I]AB-MECA from human recombinant A3 receptor expressed in HEK293 cells at 10 uM after 120 mins by scintillation counting; assay type: cell-based
# [12] = biological target: Neurotensin receptor type 1 (Homo sapiens) (UniProt P30989); experiment: Displacement of [125I]Tyr3-neurotensin from human recombinant NTS1 receptor expressed in CHO cells at 10 uM after 60 mins by scintillation counting; assay type: cell-based
# [13] = species on record: Rattus norvegicus; experiment: Displacement of [3H]batrachotoxinin from sodium channel site2 in rat cerebral cortex at 10 uM after 60 mins by scintillation counting; assay type: tissue-based
# [14] = biological target: Beta-2 adrenergic receptor (Homo sapiens) (UniProt P07550); experiment: Displacement of [3H](-)CGP 12177 from human recombinant beta2 adrenergic receptor expressed in CHO cells at 10 uM after 120 mins by scintillation counting; assay type: cell-based
# [15] = biological target: Melatonin receptor type 1A (Homo sapiens) (UniProt P48039); experiment: Displacement of [125I]2-iodomelatonin from human recombinant MT1 receptor expressed in CHO cells at 10 uM after 60 mins by scintillation counting; assay type: cell-based
# [16] = species on record: Rattus norvegicus; experiment: Displacement of [3H]a,b-MeATP from P2X receptor in rat urinary bladder at 10 uM after 120 mins by scintillation counting
# [17] = biological target: Gastrin/cholecystokinin type B receptor (Homo sapiens) (UniProt P32239); experiment: Displacement of [125I]CCK-8s from human recombinant CCK2 receptor expressed in CHO cells at 10 uM after 60 mins by scintillation counting; assay type: cell-based
# [18] = biological target: Muscarinic acetylcholine receptor M1 (Homo sapiens) (UniProt P11229); experiment: Displacement of [3H]pirenzepine from human recombinant muscarinic M1 receptor expressed in CHO cells at 10 uM after 60 mins by scintillation counting; assay type: cell-based
# [19] = biological target: D(4) dopamine receptor (Homo sapiens) (UniProt P21917); experiment: Displacement of [3H]methyl-spiperone from human recombinant D4.4 receptor expressed in CHO cells at 10 uM after 60 mins by scintillation counting; assay type: cell-based
# [20] = biological target: 5-hydroxytryptamine receptor 7 (Homo sapiens) (UniProt P34969); experiment: Displacement of [3H]LSD from human recombinant 5HT7 receptor expressed in CHO cells at 10 uM after 120 mins by scintillation counting; assay type: cell-based
# [21] = biological target: Neuropeptide Y receptor type 2 (Homo sapiens) (UniProt P49146); experiment: Displacement of [125I]peptideYY from neuropeptide Y2 receptor in human KAN-TS cells at 10 uM after 60 mins by scintillation counting; assay type: cell-based
# [22] = Metabolic stability in rat liver microsomes; assay type: ADME, Microsome; settings: read-out: Stability
# [23] = Protein binding in rat plasma; assay type: ADME, cell-free; settings: read-out: PPB (converted)
# [24] = biological target: P2X purinoceptor 4 (Homo sapiens, UniProt Q99571); experiment: Antagonist activity at P2X4 receptor; assay type: functional
# [25] = Half life in po dosed rat; assay type: ADME, organism-based; settings: in vivo
# [26] = biological target: Histamine H1 receptor (Homo sapiens) (UniProt P35367); experiment: Displacement of [3H]pyrilamine from human recombinant histamine H1 receptor expressed in HEK293 cells at 10 uM after 60 mins by scintillation counting; assay type: cell-based
# [27] = biological target: Sodium-dependent dopamine transporter (Homo sapiens) (UniProt Q01959); experiment: Displacement of [3H]BTCP from human recombinant DAT expressed in CHO cells at 10 uM after 120 mins by scintillation counting; assay type: cell-based
# [28] = biological target: Kappa-type opioid receptor (Rattus norvegicus) (UniProt P34975); experiment: Displacement of [3H]U 69593 from rat recombinant kappa opioid receptor expressed in CHO cells at 10 uM after 60 mins by scintillation counting; assay type: cell-based
# [29] = biological target: Sodium-dependent noradrenaline transporter (Homo sapiens) (UniProt P23975); experiment: Displacement of [3H]nisoxetine from human recombinant NET expressed in CHO cells at 10 uM after 120 mins by scintillation counting; assay type: cell-based
# [30] = biological target: Galanin receptor type 2 (Homo sapiens) (UniProt O43603); experiment: Displacement of [125I]galanin from human recombinant GAL2 receptor expressed in HEK293 cells at 10 uM after 120 mins by scintillation counting; assay type: cell-based
# Kappa-type opioid receptor (Rattus norvegicus), sequence (P34975 whole entry): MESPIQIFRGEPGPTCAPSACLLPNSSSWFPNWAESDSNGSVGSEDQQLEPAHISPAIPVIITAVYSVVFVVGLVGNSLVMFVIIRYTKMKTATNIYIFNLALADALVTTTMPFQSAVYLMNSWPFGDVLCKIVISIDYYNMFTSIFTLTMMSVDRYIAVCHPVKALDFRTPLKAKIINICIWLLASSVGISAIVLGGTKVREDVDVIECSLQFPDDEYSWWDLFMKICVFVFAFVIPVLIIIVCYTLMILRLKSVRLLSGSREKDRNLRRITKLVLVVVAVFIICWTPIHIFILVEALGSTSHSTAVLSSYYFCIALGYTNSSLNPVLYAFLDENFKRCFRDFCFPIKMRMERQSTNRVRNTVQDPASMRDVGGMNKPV
# Peroxisome proliferator-activated receptor gamma (Homo sapiens), sequence (P37231 whole entry): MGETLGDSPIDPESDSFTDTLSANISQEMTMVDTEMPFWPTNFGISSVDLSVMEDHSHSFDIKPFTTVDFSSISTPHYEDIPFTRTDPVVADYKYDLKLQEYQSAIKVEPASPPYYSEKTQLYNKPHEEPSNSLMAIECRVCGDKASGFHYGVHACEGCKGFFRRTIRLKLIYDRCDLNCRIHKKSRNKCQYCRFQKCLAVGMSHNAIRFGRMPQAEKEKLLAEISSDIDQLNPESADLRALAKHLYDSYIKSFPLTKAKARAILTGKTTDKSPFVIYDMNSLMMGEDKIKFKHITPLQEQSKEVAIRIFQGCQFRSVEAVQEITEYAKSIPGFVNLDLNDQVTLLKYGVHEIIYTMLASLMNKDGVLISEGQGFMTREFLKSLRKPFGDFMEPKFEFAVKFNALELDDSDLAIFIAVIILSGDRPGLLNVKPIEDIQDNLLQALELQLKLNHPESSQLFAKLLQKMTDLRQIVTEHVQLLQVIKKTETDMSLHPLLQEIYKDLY
# Sodium-dependent dopamine transporter (Homo sapiens), sequence (Q01959 whole entry): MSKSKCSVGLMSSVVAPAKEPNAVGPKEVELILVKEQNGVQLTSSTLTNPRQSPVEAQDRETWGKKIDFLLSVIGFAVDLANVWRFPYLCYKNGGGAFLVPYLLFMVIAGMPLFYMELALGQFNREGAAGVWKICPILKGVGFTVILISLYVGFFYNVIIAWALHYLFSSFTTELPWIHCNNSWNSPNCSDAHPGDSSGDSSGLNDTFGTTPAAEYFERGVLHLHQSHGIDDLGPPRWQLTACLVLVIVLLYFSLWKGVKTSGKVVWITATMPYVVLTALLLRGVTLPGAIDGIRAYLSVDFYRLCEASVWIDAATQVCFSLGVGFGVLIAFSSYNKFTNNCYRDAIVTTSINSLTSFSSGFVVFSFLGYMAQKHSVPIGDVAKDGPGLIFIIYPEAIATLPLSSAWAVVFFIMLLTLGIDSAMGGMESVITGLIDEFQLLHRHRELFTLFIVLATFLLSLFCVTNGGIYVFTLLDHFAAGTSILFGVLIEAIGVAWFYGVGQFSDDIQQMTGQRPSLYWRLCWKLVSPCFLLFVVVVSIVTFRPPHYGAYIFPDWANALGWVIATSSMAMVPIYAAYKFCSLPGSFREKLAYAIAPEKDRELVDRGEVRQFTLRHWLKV
# Glucocorticoid receptor (Homo sapiens), sequence (P04150 whole entry): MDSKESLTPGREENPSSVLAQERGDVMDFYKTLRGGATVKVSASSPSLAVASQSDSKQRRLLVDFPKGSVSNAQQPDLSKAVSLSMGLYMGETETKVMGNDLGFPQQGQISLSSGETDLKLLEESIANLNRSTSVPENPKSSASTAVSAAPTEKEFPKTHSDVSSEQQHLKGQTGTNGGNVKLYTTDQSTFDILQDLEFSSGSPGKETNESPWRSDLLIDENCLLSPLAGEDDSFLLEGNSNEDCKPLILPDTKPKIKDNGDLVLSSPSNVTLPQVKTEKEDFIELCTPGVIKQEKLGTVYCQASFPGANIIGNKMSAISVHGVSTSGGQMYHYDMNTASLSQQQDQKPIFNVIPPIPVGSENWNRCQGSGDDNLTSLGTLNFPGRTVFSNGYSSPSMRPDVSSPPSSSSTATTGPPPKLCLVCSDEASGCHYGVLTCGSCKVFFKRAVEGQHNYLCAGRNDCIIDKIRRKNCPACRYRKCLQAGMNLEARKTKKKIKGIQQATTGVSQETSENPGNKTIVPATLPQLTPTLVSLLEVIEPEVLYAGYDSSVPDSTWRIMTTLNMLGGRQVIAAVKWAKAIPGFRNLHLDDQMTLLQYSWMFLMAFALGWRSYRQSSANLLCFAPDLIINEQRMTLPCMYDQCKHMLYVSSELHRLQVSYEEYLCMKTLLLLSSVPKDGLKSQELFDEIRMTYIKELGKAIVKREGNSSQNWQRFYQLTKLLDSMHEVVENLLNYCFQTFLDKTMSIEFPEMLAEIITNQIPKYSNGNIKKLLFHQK
# Neuropeptide Y receptor type 2 (Homo sapiens), sequence (P49146 whole entry): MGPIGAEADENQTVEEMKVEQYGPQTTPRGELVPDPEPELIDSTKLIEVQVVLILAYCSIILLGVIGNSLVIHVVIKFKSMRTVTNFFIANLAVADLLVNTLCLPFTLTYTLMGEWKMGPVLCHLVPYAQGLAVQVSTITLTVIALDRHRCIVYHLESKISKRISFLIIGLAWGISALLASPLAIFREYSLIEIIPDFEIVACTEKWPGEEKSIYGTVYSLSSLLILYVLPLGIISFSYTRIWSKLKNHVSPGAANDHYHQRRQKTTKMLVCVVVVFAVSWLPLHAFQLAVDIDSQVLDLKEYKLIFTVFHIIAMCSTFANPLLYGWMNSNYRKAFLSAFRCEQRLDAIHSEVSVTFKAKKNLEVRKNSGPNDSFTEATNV
# Adenosine receptor A3 (Homo sapiens), sequence (P0DMS8 whole entry): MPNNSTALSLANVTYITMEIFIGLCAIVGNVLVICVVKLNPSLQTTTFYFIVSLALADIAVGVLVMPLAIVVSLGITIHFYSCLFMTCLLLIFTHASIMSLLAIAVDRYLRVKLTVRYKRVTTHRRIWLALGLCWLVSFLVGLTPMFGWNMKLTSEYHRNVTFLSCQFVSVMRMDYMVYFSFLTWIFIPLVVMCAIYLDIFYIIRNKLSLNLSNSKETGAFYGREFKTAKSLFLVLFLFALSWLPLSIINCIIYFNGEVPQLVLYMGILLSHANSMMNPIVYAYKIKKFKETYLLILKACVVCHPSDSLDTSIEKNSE
# Histamine H1 receptor (Homo sapiens), sequence (P35367 whole entry): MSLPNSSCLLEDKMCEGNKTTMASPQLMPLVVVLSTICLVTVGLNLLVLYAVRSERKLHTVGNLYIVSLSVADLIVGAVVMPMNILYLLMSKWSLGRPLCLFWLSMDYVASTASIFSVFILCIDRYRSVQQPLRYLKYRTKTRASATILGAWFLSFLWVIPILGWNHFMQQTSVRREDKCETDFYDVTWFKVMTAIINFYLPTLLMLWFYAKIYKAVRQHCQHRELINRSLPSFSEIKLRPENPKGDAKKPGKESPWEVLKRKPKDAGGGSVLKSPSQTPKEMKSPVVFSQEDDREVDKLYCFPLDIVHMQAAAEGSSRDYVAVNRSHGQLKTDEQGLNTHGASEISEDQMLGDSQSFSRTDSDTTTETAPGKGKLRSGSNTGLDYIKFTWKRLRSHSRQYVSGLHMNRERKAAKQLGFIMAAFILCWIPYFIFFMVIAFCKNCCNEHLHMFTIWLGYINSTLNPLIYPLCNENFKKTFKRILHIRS
# C-X-C chemokine receptor type 2 (Homo sapiens), sequence (P25025 whole entry): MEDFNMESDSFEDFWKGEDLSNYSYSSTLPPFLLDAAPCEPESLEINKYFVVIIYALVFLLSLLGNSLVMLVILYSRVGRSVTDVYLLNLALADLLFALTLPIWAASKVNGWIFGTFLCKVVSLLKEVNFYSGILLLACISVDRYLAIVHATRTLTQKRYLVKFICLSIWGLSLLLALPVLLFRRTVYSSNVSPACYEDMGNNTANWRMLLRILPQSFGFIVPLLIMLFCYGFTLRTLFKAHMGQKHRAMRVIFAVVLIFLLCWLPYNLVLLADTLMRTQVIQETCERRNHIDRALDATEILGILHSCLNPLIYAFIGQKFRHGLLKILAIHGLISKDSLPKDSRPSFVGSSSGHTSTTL
# P2X purinoceptor 4, sequence (Q99571 whole entry): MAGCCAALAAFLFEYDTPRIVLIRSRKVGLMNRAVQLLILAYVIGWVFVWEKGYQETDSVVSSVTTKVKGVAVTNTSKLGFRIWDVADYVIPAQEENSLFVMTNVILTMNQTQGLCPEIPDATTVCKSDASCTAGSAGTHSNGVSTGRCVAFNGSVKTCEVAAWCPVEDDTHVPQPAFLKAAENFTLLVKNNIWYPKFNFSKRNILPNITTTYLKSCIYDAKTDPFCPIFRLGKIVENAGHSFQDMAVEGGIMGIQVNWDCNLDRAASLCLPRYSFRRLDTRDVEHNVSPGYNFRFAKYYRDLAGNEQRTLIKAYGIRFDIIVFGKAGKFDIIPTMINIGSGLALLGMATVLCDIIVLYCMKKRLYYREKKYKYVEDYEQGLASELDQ
# P2X purinoceptor 5, sequence (Q93086 whole entry): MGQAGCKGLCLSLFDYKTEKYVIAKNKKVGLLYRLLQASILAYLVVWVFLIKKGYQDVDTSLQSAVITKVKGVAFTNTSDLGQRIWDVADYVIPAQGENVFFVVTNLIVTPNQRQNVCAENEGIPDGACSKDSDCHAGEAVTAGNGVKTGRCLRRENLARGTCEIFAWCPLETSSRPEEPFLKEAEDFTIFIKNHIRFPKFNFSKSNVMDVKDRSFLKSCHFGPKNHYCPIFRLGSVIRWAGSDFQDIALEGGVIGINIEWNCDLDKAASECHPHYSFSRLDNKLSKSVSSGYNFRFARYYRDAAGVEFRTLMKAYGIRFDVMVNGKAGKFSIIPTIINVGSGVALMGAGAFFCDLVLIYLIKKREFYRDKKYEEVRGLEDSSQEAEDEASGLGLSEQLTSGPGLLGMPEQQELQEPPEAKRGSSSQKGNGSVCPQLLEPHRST
structure (smiles),measurement,setting,value
CC(=O)N1CCN(C[C@@H](C)NC(=O)c2cc3c(-c4ccccc4)nn(C)c3s2)CC1,Activity,[1],> 50%
same,Activity,[2],> 50%
same,Activity,[3],> 50%
same,Activity,[4],> 50%
same,"inhibition at 2 h, 10 µM",[5],> 50%
same,Activity,[6],> 50%
same,Activity,[7],> 50%
same,IC50,[8],> 10 µM
same,Activity,[9],> 50%
same,Activity,[10],> 50%
same,Activity,[11],> 50%
same,Activity,[12],> 50%
same,Activity,[13],> 50%
same,Activity,[14],> 50%
same,Activity,[15],> 50%
same,Activity,[16],> 50%
same,Activity,[17],> 50%
same,Activity,[18],> 50%
same,Activity,[19],> 50%
same,Activity,[20],> 50%
same,Activity,[21],> 50%
same,microsomal CLint,[22],43.7 µL/min/mg
same,fraction unbound,[23],0.11
same,IC50,[24],> 10 µM
same,half-life,[25],1.6 h
same,Activity,[26],> 50%
same,Activity,[27],> 50%
same,Activity,[28],> 50%
same,Activity,[29],> 50%
same,Activity,[30],> 50%
